Publication PMC3969271, “A Bacterial Homolog of a Eukaryotic Inositol Phosphate Signaling Enzyme Mediates Cross-kingdom Dialog in the Mammalian Gut” (Cell Reports, 2014)

Legend:
[1] = biological target: T1, BtMinpp (Bacteroides thetaiotaomicron, UniProt Q89YI8); test: HPLC of […]-labelled products; phosphatase activity; assay type: biochemical; settings: 1 mM InsP6; 0.25 μg/ml enzyme; labelled compound
T1 construct: gene BT_4744; N-terminal 6xHis fusion, expressed in Escherichia coli
T1 sequence (Q89YI8 21-425): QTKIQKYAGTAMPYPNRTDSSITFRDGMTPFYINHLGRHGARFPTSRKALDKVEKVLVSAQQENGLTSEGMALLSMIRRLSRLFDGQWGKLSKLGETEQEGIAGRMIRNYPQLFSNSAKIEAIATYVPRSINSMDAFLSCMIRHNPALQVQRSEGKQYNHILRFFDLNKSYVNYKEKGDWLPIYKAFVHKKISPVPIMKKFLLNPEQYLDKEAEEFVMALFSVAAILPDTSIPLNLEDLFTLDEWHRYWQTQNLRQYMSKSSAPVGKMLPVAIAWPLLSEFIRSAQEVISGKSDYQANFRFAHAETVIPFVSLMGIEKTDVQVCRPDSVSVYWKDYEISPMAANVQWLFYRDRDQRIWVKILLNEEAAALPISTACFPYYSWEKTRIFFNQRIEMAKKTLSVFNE

[2] = biological target: T1, BtMinpp; test: X-ray crystal structure, […] Å; assay type: binding; settings: active site; nonhydrolysable InsP6 analog

Compound	HPLC of 32P-labelled products; phosphatase activity [1]	X-ray crystal structure, 2.42 Å [2]
O=P(O)(O)O[C@H]1[C@H](OP(=O)(O)O)[C@@H](OP(=O)(O)O)[C@H](OP(=O)(O)O)[C@@H](OP(=O)(O)O)[C@H]1OP(=O)(O)O [InsP6]	confirmed that this protein has InsP6 phosphatase activity (Figure 1A)	
O=S(=O)(O)O[C@H]1[C@H](OS(=O)(=O)O)[C@@H](OS(=O)(=O)O)[C@H](OS(=O)(=O)O)[C@@H](OS(=O)(=O)O)[C@H]1OS(=O)(=O)O [InsS6, myo-inositol hexakissulfate]		myo-inositol hexakissulfate (InsS6), again bound in the active sites of both molecules
